Measured values: ChEMBL document CHEMBL2413072, “Synthesis and in vitro anticancer studies of novel C-2 arylidene congeners of lantadenes” (2013)
Active and inactive are the calls of the source. The calls are words filed in the database; no cut-off is given here.

Columns and labels:
Assay type in all cases: functional
DU-145 = experiment: Growth inhibition of human DU145 cells assessed as cell growth at 10 uM by sulforhodamine B assay; settings: read-out: Activity
T47D = experiment: Growth inhibition of human T47D cells assessed as growth inhibition at 10 uM by sulforhodamine B assay; settings: read-out: GI
BT-549 = experiment: Growth inhibition of human BT549 cells assessed as growth inhibition at 10 uM by sulforhodamine B assay; settings: read-out: GI
U-251 = experiment: Growth inhibition of human U251 cells assessed as growth inhibition at 10 uM by sulforhodamine B assay; settings: read-out: GI
HL-60(TB) = experiment: Growth inhibition of human HL-60(TB) cells assessed as growth inhibition at 10 uM by sulforhodamine B assay
ACHN = experiment: Growth inhibition of human ACHN cells assessed as growth inhibition at 10 uM by sulforhodamine B assay; settings: read-out: GI
SR [1] = experiment: Growth inhibition of human SR cells assessed as cell growth at 10 uM by sulforhodamine B assay; settings: read-out: Activity
SK-MEL-2 = experiment: Growth inhibition of human SK-MEL-2 cells assessed as growth inhibition at 10 uM by sulforhodamine B assay; settings: read-out: GI
SNB-75 [2] = experiment: Growth inhibition of human SNB75 cells assessed as growth inhibition at 10 uM by sulforhodamine B assay; settings: read-out: GI
MDA-MB-468 [3] = experiment: Growth inhibition of human MDA-MB-468 cells assessed as cell growth at 10 uM by sulforhodamine B assay; settings: read-out: Activity
MDA-MB-468 [4] = experiment: Growth inhibition of human MDA-MB-468 cells assessed as growth inhibition at 10 uM by sulforhodamine B assay; settings: read-out: GI
SF-295 [5] = experiment: Growth inhibition of human SF295 cells assessed as cell growth at 10 uM by sulforhodamine B assay; settings: read-out: Activity
MDA-MB-231 = experiment: Growth inhibition of human MDA-MB-231 cells assessed as growth inhibition at 10 uM by sulforhodamine B assay; settings: read-out: GI
NCI-H322M = experiment: Growth inhibition of human NCI-H322M cells assessed as cell growth at 10 uM by sulforhodamine B assay; settings: read-out: Activity
[6] = Growth inhibition of human Hs 578T cells assessed as cell growth at 10 uM by sulforhodamine B assay; settings: read-out: Activity
UACC-257 = experiment: Growth inhibition of human UACC257 cells assessed as cell growth at 10 uM by sulforhodamine B assay; settings: read-out: Activity
CCRF-CEM = experiment: Growth inhibition of human CCRF-CEM cells assessed as cell growth at 10 uM by sulforhodamine B assay; settings: read-out: Activity
LOX IMVI [7] = experiment: Growth inhibition of human LOXIMVI cells assessed as growth inhibition at 10 uM by sulforhodamine B assay; settings: read-out: GI
K562 = experiment: Growth inhibition of human K562 cells assessed as growth inhibition at 10 uM by sulforhodamine B assay; settings: read-out: GI
HCT-116 [8] = experiment: Growth inhibition of human HCT116 cells assessed as cell growth at 10 uM by sulforhodamine B assay; settings: read-out: Activity
SNB-75 [9] = experiment: Growth inhibition of human SNB75 cells assessed as cell growth at 10 uM by sulforhodamine B assay; settings: read-out: Activity
A549 [10] = experiment: Growth inhibition of human A549/ATCC cells assessed as growth inhibition at 10 uM by sulforhodamine B assay; settings: read-out: GI
CAKI-1 = experiment: Growth inhibition of human CAKI-1 cells assessed as cell growth at 10 uM by sulforhodamine B assay; settings: read-out: Activity
SF-295 [11] = experiment: Growth inhibition of human SF295 cells assessed as growth inhibition at 10 uM by sulforhodamine B assay
HCT-116 [12] = experiment: Growth inhibition of human HCT116 cells assessed as growth inhibition at 10 uM by sulforhodamine B assay; settings: read-out: GI
OVCAR-8 = experiment: Growth inhibition of human OVCAR8 cells assessed as growth inhibition at 10 uM by sulforhodamine B assay; settings: read-out: GI
COLO 205 = experiment: Growth inhibition of human COLO205 cells assessed as growth inhibition at 10 uM by sulforhodamine B assay; settings: read-out: GI
OVCAR-4 [13] = experiment: Growth inhibition of human OVCAR4 cells assessed as growth inhibition at 10 uM by sulforhodamine B assay; settings: read-out: GI
PC-3 [14] = experiment: Growth inhibition of human PC3 cells assessed as cell growth at 10 uM by sulforhodamine B assay; settings: read-out: Activity
PC-3 [15] = experiment: Growth inhibition of human PC3 cells assessed as growth inhibition at 10 uM by sulforhodamine B assay; settings: read-out: GI
SR [16] = experiment: Growth inhibition of human SR cells assessed as growth inhibition at 10 uM by sulforhodamine B assay; settings: read-out: GI
SNB-19 = experiment: Growth inhibition of human SNB19 cells assessed as growth inhibition at 10 uM by sulforhodamine B assay
RXF 393 [17] = experiment: Growth inhibition of human RXF393 cells assessed as growth inhibition at 10 uM by sulforhodamine B assay; settings: read-out: GI
OVCAR-5 = experiment: Growth inhibition of human OVCAR5 cells assessed as growth inhibition at 10 uM by sulforhodamine B assay; settings: read-out: GI
HOP-62 = experiment: Growth inhibition of human HOP62 cells assessed as cell growth at 10 uM by sulforhodamine B assay; settings: read-out: Activity
786-0 = experiment: Growth inhibition of human 786-0 cells assessed as cell growth at 10 uM by sulforhodamine B assay; settings: read-out: Activity
SK-MEL-5 = experiment: Growth inhibition of human SK-MEL-5 cells assessed as growth inhibition at 10 uM by sulforhodamine B assay; settings: read-out: GI
[18] = Growth inhibition of human HCC2998 cells assessed as growth inhibition at 10 uM by sulforhodamine B assay; settings: HCC 2998, read-out: GI
OVCAR-4 [19] = experiment: Growth inhibition of human OVCAR4 cells assessed as cell growth at 10 uM by sulforhodamine B assay; settings: read-out: Activity
NCI-H460 = experiment: Growth inhibition of human NCI-H460 cells assessed as cell growth at 10 uM by sulforhodamine B assay; settings: read-out: Activity
A498 = experiment: Growth inhibition of human A498 cells assessed as cell growth at 10 uM by sulforhodamine B assay; settings: read-out: Activity
HT-29 = experiment: Growth inhibition of human HT-29 cells assessed as growth inhibition at 10 uM by sulforhodamine B assay; settings: read-out: GI
[20] = Growth inhibition of human NCI-ADR-RES cells assessed as growth inhibition at 10 uM by sulforhodamine B assay; settings: read-out: GI
HCT-15 = experiment: Growth inhibition of human HCT15 cells assessed as growth inhibition at 10 uM by sulforhodamine B assay; settings: read-out: GI
RXF 393 [21] = experiment: Growth inhibition of human RXF393 cells assessed as cell growth at 10 uM by sulforhodamine B assay; settings: read-out: Activity
LOX IMVI [22] = experiment: Growth inhibition of human LOXIMVI cells assessed as cell growth at 10 uM by sulforhodamine B assay; settings: read-out: Activity
UO-31 = experiment: Growth inhibition of human UO31 cells assessed as cell growth at 10 uM by sulforhodamine B assay; settings: read-out: Activity
A549 [23] = experiment: Growth inhibition of human A549/ATCC cells assessed as cell growth at 10 uM by sulforhodamine B assay; settings: read-out: Activity
[24] = Growth inhibition of human Hs 578T cells assessed as growth inhibition at 10 uM by sulforhodamine B assay; settings: read-out: GI

Compound: C/C=C(/C)C(=O)O[C@@H]1CC(C)(C)C[C@H]2C3=CC[C@@H]4[C@@]5(C)CC[C@H](O)C(C)(C)[C@@H]5CC[C@@]4(C)[C@]3(C)CC[C@@]12C(=O)O [Reduced Lantadene A]
- growth at 10 µM (DU-145): 74.9%
- inhibition of growth at 10 µM (T47D): 24.3%
- inhibition of growth at 10 µM (BT-549): 73.9%
- inhibition of growth at 10 µM (U-251): 61.8%
- growth inhibition (GI) (HL-60(TB)): Active
- inhibition of growth at 10 µM (ACHN): 91.9%
- growth at 10 µM (SR [1]): 61.9%
- inhibition of growth at 10 µM (SK-MEL-2): 45.9%
- inhibition of growth at 10 µM (SNB-75 [2]): 88%
- growth at 10 µM (MDA-MB-468 [3]): 66.1%
- inhibition of growth at 10 µM (MDA-MB-468 [4]): 33.9%
- growth at 10 µM (SF-295 [5]): -14.4%
- inhibition of growth at 10 µM (MDA-MB-231): 77.8%
- growth at 10 µM (NCI-H322M): -8.43%
- growth at 10 µM [6]: -17.2%
- growth at 10 µM (UACC-257): 60.6%
- growth at 10 µM (CCRF-CEM): 45.8%
- inhibition of growth at 10 µM (LOX IMVI [7]): 57.3%
- inhibition of growth at 10 µM (K562): 64.1%
- growth at 10 µM (HCT-116 [8]): 20%
- growth at 10 µM (SNB-75 [9]): 11.9%
- inhibition of growth at 10 µM (A549 [10]): 72.6%
- growth at 10 µM (CAKI-1): 29.5%
- growth inhibition (GI) (SF-295 [11]): Active
- inhibition of growth at 10 µM (HCT-116 [12]): 80%
- inhibition of growth at 10 µM (OVCAR-8): 42.3%
- inhibition of growth at 10 µM (COLO 205): 71.8%
- inhibition of growth at 10 µM (OVCAR-4 [13]): 36.8%
- growth at 10 µM (PC-3 [14]): 33.3%
- inhibition of growth at 10 µM (PC-3 [15]): 66.7%
- inhibition of growth at 10 µM (SR [16]): 38.1%
- growth inhibition (GI) (SNB-19): Active
- inhibition of growth at 10 µM (RXF 393 [17]): 77.2%
- inhibition of growth at 10 µM (OVCAR-5): 36%
- growth at 10 µM (HOP-62): 24.3%
- growth at 10 µM (786-0): -42.9%
- inhibition of growth at 10 µM (SK-MEL-5): 46.8%
- inhibition of growth at 10 µM [18]: 73.6%
- growth at 10 µM (OVCAR-4 [19]): 63.2%
- growth at 10 µM (NCI-H460): 35.1%
- growth at 10 µM (A498): -31.8%
- inhibition of growth at 10 µM (HT-29): 44.2%
- inhibition of growth at 10 µM [20]: 30.2%
- inhibition of growth at 10 µM (HCT-15): 78.8%
- growth at 10 µM (RXF 393 [21]): 22.8%
- growth at 10 µM (LOX IMVI [22]): 42.7%
- growth at 10 µM (UO-31): -26%
- growth at 10 µM (A549 [23]): 27.4%

Compound: CC(C)=CC(=O)O[C@@H]1CC(C)(C)C[C@H]2C3=CC[C@@H]4[C@@]5(C)CCC(=O)C(C)(C)[C@@H]5CC[C@@]4(C)[C@]3(C)CC[C@@]12C(=O)O
- growth at 10 µM (DU-145): 74.5%
- inhibition of growth at 10 µM (T47D): 38.4%
- inhibition of growth at 10 µM (BT-549): 30.4%
- inhibition of growth at 10 µM (U-251): 61.8%
- inhibition of growth at 10 µM (HL-60(TB); read-out: GI): 89.8%
- inhibition of growth at 10 µM (ACHN): 56.1%
- growth at 10 µM (SR [1]): 52.1%
- inhibition of growth at 10 µM (SK-MEL-2): 21.8%
- inhibition of growth at 10 µM (SNB-75 [2]): 30%
- growth at 10 µM (MDA-MB-468 [3]): 64.2%
- inhibition of growth at 10 µM (MDA-MB-468 [4]): 35.8%
- inhibition of growth at 10 µM (MDA-MB-231): 28.5%
- growth at 10 µM (NCI-H322M): 54%
- growth at 10 µM [6]: 79.6%
- growth at 10 µM (UACC-257): 73.9%
- growth at 10 µM (CCRF-CEM): 25.3%
- inhibition of growth at 10 µM (LOX IMVI [7]): 48.8%
- inhibition of growth at 10 µM (K562): 55%
- growth at 10 µM (HCT-116 [8]): 26.6%
- growth at 10 µM (SNB-75 [9]): 70%
- inhibition of growth at 10 µM (A549 [10]): 77.8%
- growth at 10 µM (CAKI-1): 46.8%
- inhibition of growth at 10 µM (HCT-116 [12]): 73.4%
- inhibition of growth at 10 µM (OVCAR-8): 44.9%
- inhibition of growth at 10 µM (COLO 205): 29%
- inhibition of growth at 10 µM (OVCAR-4 [13]): 28.7%
- growth at 10 µM (PC-3 [14]): 36.9%
- inhibition of growth at 10 µM (PC-3 [15]): 63.1%
- inhibition of growth at 10 µM (SR [16]): 47.9%
- inhibition of growth at 10 µM (SNB-19; read-out: GI): 42.7%
- inhibition of growth at 10 µM (RXF 393 [17]): 15.4%
- inhibition of growth at 10 µM (OVCAR-5): < 10%
- growth at 10 µM (HOP-62): 60.2%
- growth at 10 µM (786-0): 44.1%
- inhibition of growth at 10 µM (SK-MEL-5): 52.1%
- inhibition of growth at 10 µM [18]: 47.2%
- growth at 10 µM (OVCAR-4 [19]): 71.3%
- growth at 10 µM (NCI-H460): 47.1%
- growth at 10 µM (A498): 101%
- inhibition of growth at 10 µM (HT-29): 42.7%
- inhibition of growth at 10 µM [20]: 40%
- inhibition of growth at 10 µM (HCT-15): 81.4%
- growth at 10 µM (RXF 393 [21]): 84.6%
- growth at 10 µM (LOX IMVI [22]): 51.2%
- growth at 10 µM (UO-31): 42%
- inhibition of growth at 10 µM [24]: 20.4%
- growth at 10 µM (A549 [23]): 22.2%
